For 9 compounds, IC50 results are on record in BindingDB's records for doi:10.1016/j.bioorg.2016.02.009 (Tianjin University of Science and Technology, 2016).

Each structure is given as a SMILES string.

Isoform 2 of Hepatocyte growth factor receptor (2), sequence (P08581 as listed by the source): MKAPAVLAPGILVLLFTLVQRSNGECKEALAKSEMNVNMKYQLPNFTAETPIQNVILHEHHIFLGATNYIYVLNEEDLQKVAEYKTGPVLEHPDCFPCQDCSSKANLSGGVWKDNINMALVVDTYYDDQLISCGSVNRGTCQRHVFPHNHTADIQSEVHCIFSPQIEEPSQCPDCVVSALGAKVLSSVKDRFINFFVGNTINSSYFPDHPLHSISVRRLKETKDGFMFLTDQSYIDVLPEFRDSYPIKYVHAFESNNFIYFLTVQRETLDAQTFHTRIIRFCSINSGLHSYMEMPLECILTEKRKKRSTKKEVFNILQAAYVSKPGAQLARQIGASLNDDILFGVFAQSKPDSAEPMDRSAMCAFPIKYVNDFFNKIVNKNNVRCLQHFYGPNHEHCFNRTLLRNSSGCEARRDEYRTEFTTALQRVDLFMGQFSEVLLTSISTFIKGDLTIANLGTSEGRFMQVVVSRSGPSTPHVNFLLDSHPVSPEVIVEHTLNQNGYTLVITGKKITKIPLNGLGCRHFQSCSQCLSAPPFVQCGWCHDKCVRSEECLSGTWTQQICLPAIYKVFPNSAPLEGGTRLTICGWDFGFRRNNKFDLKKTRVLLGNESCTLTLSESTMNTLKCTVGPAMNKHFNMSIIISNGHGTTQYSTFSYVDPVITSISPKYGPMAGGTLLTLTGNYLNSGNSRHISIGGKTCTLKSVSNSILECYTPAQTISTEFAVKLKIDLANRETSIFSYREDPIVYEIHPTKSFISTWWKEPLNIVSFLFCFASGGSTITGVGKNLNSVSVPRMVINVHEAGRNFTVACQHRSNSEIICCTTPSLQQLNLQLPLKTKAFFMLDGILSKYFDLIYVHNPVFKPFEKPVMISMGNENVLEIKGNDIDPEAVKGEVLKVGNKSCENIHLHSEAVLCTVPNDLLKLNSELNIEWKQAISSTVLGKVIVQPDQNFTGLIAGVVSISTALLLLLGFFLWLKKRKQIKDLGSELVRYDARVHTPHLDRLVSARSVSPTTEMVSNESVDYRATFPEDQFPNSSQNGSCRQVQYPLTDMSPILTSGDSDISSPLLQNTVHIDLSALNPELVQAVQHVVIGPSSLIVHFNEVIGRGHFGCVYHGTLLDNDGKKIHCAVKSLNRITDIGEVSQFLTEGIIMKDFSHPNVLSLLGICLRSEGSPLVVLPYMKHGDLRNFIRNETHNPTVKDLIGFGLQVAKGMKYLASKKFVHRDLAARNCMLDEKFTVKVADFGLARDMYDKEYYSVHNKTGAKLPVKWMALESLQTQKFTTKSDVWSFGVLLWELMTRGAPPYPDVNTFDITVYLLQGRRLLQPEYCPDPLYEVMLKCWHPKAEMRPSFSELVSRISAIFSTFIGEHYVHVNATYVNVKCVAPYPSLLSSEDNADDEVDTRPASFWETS

In this assay the target is Isoform 2 of Hepatocyte growth factor receptor (2) (Homo sapiens, UniProt P08581). Kind of assay: c-Met Z-LYTE Assay. Particulars: pH 7; 25 °C. How it is done:
The c-Met kinase activity of five target compounds and three positive compounds were evaluated using standard Z-LYTE Assays (fluorescence resonance energy transfer, FRET). The test compounds or reference controls were dissolved indimethyl sulfoxide (DMSO) as stock solution. […] 5 µL of the detectionreagents A (Invitrogen) was added at final concentrations of 64-fold dilution. The plates were incubated at room temperature for 60 min and then read in the Envision plate reader (PerkinElmer).
Regarding `CC(c1c(Cl)ccc(F)c1Cl)c1c(Cl)[nH]c2ncc(-c3cnn(C4CCNCC4)c3)cc12` (centres undefined) [4-(4-{2-chloro-3-[1-(2,6-dichloro-3-fluorophenyl)ethyl]-1H-pyrrolo[2,3-b]pyridin-5-yl}-1H-pyrazol-1-yl)piperidine (7)], half-maximal inhibition (IC50) was put at 982 nM.

`O=C(NCc1ccc(F)cc1)Nc1ccc(Oc2ccnc3[nH]c(-c4cccnc4)cc23)c(F)c1` [3-(3-fluoro-4-{[2-(pyridin-3-yl)-1H-pyrrolo[2,3-b]pyridin-4-yl]oxy}phenyl)-1-[(4-fluorophenyl)methyl]urea (2a)]: the IC50 is 2 nM.

On to `Cc1[nH]c2ncc(-c3cnn(C4CCNCC4)c3)cc2c1C(C)c1c(Cl)ccc(F)c1Cl` (centres undefined) [3-(1-(2,6-dichloro-3-fluorophenyl)ethyl)-2-methyl-5-(1-(piperidin-4-yl)-1H-pyrazol-4-yl)-1H-pyrrolo[2,3-b]pyridine (6)], for which the IC50 is 286 nM. Compared with the last compound, the IC50 is about 140-fold higher.

In turn, `Fc1ccc(Cl)c(Sc2n[nH]c3ncc(-c4cnn(C5CCNCC5)c4)cc23)c1Cl` [3-((2,6-dichloro-3-fluorophenyl)thio)-5-(1-(piperidin-4-yl)-1H-pyrazol-4-yl)-1H-pyrazolo[3,4-b]pyridine (9)] came in with an IC50 of 22.8 nM. Compared with the last compound, the IC50 is about 13-fold lower.

Take `CC(Sc1cc(-c2cnn(C3CCNCC3)c2)cnc1N)c1c(Cl)ccc(F)c1Cl` (centres undefined) [3-{[1-(2,6-dichloro-3-fluorophenyl)ethyl]sulfanyl}-5-[1-(piperidin-4-yl)-1H-pyrazol-4-yl]pyridin-2-amine (11b)]: the IC50 was determined as 51.2 nM.

`O=C(NCc1ccc(F)cc1)Nc1ccc(Oc2ccnc3[nH]ccc23)c(F)c1` [3-(3-fluoro-4-{1H-pyrrolo[2,3-b]pyridin-4-yloxy}phenyl)-1-[(4-fluorophenyl)methyl]urea (2)] displayed an IC50 of 11 nM.

`Fc1ccc(Cl)c(C2(c3n[nH]c4ncc(-c5cnn(C6CCNCC6)c5)cc34)CC2)c1Cl` [3-(1-(2,6-dichloro-3-fluorophenyl)cyclopropyl)-5-(1-(piperidin-4-yl)-1H-pyrazol-4-yl)-1H-pyrazolo[3,4-b]pyridine (10)] came in with an IC50 of 47.4 nM.

Regarding `c1ccc(-c2cnc3nnc(C4(c5ccc6ncccc6c5)CC4)n3n2)cc1` [6-(1-{6-phenyl-[1,2,4]triazolo[4,3-b][1,2,4]triazin-3-yl}cyclopropyl)quinoline (5)], half-maximal inhibition (IC50) required 13 nM.

`CC(c1c(Cl)ccc(F)c1Cl)c1c[nH]c2ncc(-c3cnn(C4CCNCC4)c3)cc12` (centres undefined) [4-(4-{3-[1-(2,6-dichloro-3-fluorophenyl)ethyl]-1H-pyrrolo[2,3-b]pyridin-5-yl}-1H-pyrazol-1-yl)piperidine (1)] displayed an IC50 below 100 nM.

In general, IC50 refers to the point on the concentration scale where inhibition reaches its midpoint. Lower therefore signals inhibition by little substance.
